The values that follow are results of earlier work, collected in US11304902B2, “Pharmaceutical compositions, preparation and uses thereof” (CURADIGM SAS, priority 2014, dated 2022).

Among the targets are CYP3A4 (Homo sapiens, UniProt P08684); CYP2D6 (Homo sapiens, UniProt P10635); CYP2C19 (Homo sapiens, UniProt P33261); CYP2C9 (Homo sapiens, UniProt P11712).
Common to all, as to conditions: human CYP enzyme
A further data set has as its target T1, CYP1A1 (Homo sapiens, UniProt P04798).
T1 sequence (P04798 1-512): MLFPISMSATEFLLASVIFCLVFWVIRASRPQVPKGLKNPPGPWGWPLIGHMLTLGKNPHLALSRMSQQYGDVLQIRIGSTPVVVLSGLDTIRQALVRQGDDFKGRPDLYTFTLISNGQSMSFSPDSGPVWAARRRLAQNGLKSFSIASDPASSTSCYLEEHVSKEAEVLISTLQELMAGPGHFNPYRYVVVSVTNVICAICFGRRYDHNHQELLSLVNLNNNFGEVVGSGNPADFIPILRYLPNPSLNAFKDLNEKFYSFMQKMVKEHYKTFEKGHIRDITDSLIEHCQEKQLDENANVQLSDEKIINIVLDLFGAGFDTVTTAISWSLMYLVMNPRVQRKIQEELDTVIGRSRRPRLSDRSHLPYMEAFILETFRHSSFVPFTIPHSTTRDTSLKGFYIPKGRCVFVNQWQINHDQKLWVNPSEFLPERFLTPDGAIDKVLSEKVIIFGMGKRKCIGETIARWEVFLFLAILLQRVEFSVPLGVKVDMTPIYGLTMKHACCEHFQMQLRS

In the next data set the target is T2, CYP1B1 (Homo sapiens, UniProt Q16678).
T2 sequence (Q16678 1-543): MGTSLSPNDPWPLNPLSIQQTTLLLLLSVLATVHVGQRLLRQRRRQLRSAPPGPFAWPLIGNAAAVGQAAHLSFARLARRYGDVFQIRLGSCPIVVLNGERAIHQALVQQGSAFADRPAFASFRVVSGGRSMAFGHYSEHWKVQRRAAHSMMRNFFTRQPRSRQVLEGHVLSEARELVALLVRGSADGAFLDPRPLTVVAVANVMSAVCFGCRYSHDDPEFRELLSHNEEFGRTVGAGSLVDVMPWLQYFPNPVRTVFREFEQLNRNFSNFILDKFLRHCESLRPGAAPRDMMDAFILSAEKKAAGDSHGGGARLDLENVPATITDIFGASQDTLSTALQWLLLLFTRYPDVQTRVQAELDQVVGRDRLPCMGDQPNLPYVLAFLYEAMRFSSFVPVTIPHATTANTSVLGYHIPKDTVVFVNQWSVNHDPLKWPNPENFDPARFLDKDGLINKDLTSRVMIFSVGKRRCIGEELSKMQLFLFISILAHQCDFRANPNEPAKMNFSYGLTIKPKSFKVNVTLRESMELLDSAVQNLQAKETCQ

In a further data set the target is T3, CYP2B6 (Homo sapiens, UniProt P20813).
T3 sequence (P20813 1-491): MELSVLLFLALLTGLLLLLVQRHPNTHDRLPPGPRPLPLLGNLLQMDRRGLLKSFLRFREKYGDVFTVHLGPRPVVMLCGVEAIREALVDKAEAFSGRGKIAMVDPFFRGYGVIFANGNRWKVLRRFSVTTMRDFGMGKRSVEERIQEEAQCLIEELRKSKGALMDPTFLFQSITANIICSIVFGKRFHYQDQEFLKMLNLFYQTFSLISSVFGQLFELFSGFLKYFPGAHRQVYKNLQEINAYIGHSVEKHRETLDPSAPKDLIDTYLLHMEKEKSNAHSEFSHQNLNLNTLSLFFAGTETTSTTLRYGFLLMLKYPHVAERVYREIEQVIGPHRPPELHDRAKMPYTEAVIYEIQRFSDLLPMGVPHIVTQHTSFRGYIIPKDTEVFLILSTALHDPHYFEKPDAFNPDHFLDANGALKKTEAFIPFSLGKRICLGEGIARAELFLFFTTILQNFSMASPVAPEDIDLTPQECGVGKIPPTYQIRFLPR

The next data set addresses T4, CYP11B1 (Homo sapiens, UniProt P15538).
T4 sequence (P15538 25-503): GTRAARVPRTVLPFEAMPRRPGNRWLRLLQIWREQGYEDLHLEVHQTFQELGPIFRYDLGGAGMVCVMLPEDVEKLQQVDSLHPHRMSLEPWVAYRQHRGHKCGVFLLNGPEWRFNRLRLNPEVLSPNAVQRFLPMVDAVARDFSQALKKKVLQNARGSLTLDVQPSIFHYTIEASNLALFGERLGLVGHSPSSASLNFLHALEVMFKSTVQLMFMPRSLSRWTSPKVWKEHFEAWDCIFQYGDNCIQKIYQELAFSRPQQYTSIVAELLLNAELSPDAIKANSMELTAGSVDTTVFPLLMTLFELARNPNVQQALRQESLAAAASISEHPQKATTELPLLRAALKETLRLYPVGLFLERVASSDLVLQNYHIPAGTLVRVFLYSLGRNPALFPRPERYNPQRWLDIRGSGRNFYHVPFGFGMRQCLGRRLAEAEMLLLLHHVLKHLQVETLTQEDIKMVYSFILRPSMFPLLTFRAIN

Another data set concerns the target T5, CYP2C18 (Homo sapiens, UniProt P33260).
T5 sequence (P33260 26-490): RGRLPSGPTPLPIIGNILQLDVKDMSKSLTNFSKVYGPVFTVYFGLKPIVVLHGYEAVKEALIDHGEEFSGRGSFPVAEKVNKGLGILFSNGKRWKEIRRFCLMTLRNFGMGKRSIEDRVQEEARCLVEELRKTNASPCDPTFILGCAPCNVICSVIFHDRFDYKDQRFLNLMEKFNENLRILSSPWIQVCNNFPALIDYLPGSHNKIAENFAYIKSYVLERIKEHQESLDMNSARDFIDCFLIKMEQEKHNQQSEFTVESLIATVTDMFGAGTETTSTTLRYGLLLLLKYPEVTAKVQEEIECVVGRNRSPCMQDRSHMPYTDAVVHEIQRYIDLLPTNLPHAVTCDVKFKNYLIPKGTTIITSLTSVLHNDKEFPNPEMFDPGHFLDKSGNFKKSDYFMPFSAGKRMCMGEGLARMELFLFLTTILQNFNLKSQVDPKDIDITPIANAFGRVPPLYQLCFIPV

The target in another data set is T6, CYP2C8 (Homo sapiens, UniProt P10632).
T6 sequence (P10632 1-490): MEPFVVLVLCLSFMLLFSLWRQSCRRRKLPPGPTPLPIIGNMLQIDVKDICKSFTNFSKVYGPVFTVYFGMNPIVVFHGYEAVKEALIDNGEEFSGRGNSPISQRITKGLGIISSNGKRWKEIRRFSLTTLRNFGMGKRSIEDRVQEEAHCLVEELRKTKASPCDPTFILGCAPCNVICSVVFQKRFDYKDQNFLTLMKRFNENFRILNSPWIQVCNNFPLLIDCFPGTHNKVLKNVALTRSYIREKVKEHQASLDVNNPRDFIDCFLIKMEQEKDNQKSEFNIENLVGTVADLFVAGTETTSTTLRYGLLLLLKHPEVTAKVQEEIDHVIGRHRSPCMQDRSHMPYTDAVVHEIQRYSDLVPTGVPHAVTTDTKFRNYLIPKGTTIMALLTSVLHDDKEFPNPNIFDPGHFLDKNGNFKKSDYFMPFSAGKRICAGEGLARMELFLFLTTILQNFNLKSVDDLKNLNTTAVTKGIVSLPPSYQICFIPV

The target in the next data set is T7, CYP1A2 (Homo sapiens, UniProt P05177).
T7 sequence (P05177 1-516): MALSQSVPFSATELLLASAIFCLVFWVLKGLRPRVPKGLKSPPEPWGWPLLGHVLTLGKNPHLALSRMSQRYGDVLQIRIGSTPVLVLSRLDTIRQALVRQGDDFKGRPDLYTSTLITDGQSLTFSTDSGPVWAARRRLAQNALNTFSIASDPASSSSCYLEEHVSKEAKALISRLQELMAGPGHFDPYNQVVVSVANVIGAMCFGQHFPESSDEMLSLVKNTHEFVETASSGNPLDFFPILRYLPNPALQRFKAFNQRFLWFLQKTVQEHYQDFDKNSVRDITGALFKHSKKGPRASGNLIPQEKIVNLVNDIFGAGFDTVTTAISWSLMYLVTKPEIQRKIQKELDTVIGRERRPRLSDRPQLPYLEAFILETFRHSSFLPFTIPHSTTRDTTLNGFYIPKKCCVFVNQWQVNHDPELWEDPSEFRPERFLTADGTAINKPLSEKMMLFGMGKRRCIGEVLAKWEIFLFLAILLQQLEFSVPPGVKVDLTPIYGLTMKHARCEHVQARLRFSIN

SMILES strings stand for the structures. “Also recorded” adds a separate entry of the source. Read-outs that look alike come from different tables or passages of the source.

Sequence of CYP2D6 (P10635 whole entry): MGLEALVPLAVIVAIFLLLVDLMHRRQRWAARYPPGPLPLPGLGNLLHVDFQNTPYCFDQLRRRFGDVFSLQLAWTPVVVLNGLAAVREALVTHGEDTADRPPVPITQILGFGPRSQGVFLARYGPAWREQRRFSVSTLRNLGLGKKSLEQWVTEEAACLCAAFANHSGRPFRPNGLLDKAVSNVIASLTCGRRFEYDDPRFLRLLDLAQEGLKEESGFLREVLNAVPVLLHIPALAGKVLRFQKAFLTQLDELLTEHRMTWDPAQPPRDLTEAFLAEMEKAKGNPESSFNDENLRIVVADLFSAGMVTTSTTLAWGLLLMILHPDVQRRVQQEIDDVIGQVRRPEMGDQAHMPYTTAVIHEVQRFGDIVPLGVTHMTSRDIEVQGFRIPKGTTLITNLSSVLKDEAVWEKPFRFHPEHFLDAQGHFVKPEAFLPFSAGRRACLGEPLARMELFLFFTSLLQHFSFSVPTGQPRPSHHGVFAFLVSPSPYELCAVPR
Sequence of CYP3A4 (P08684 whole entry): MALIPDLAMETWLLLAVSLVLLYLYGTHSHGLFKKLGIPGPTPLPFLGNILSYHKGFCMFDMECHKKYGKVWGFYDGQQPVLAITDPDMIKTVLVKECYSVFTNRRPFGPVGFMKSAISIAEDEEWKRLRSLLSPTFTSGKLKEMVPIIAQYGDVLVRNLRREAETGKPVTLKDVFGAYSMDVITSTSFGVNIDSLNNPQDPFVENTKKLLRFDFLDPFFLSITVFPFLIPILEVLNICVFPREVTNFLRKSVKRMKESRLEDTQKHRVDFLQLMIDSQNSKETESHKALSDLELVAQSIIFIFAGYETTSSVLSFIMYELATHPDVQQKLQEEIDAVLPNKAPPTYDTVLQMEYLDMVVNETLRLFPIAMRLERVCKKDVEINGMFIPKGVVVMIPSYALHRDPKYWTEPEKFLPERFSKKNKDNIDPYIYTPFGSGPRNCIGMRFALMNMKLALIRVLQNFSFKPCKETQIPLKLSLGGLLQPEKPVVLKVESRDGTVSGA
Sequence of CYP2C19 (P33261 whole entry): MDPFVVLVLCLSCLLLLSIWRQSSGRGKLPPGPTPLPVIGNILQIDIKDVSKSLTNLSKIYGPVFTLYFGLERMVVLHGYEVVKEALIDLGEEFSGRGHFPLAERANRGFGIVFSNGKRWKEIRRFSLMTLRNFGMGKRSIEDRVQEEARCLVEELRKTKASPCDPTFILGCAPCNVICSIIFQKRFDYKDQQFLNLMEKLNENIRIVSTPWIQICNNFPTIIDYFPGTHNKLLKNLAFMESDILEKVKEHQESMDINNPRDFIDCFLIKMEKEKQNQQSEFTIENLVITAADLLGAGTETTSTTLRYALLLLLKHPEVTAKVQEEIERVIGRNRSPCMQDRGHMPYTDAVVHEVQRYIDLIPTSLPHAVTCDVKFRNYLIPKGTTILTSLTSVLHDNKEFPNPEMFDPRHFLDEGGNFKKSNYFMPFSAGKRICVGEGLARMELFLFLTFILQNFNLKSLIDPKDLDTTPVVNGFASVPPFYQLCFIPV
Sequence of CYP2C9 (P11712 whole entry): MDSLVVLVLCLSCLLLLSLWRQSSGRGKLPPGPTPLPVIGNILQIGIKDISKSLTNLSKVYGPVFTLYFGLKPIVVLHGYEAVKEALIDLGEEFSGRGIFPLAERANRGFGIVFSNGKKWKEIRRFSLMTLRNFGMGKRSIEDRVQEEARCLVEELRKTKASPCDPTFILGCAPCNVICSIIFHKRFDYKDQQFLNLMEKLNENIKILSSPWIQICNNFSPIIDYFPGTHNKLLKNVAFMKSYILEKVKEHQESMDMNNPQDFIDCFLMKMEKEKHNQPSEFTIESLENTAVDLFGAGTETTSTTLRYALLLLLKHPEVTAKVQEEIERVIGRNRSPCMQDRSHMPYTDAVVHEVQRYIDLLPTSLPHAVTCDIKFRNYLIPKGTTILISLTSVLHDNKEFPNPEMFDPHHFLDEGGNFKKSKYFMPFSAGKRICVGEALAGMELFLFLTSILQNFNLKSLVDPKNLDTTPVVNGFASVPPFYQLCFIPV

Consider `O=c1cc(-c2ccc(O)cc2)oc2cc(O)cc(O)c12` [Apigenin, apigenin], for which the “role towards CYP1A1 (substrate / inhibitor / inducer)” value at CYP1A1 is “Inhibitor”.
As for `CC(=O)O[C@@]12CO[C@@H]1C[C@H](O)[C@@]1(C)C(=O)[C@H](O)C3=C(C)[C@@H](OC(=O)[C@H](O)[C@@H](NC(=O)OC(C)(C)C)c4ccccc4)C[C@@](O)([C@@H](OC(=O)c4ccccc4)[C@H]21)C3(C)C` [Docetaxel, docetaxel], the results for the “role towards CYP3A4 (substrate / inhibitor / inducer)” value at CYP3A4 and on CYP3A4 (listed as docetaxel) were “Substrate” and “substrate”, respectively. On CYP1B1, the “role towards CYP1B1 (substrate / inhibitor / inducer)” value was “Substrate; also recorded: inhibitor”.
Turning to `COc1cccc2c1C(=O)c1c(O)c3c(c(O)c1C2=O)C[C@@](O)(C(=O)CO)C[C@@H]3O[C@H]1C[C@H](N)[C@H](O)[C@H](C)O1` [Doxorubicin, doxorubicin], the “role towards CYP3A4 (substrate / inhibitor / inducer)” value at CYP3A4 is reported as “Substrate; also recorded: inhibitor”. Moreover, at CYP2D6, the “role towards CYP2D6 (substrate / inhibitor / inducer)” value was “inhibitor”.
For `O=C1Nc2ccc(Cl)cc2[C@@](C#CC2CC2)(C(F)(F)F)O1` [Efavirenz, efavirenz], on CYP2B6, the “role towards CYP2B6 (substrate / inhibitor / inducer)” value was “Substrate; also recorded: inhibitor”. Besides, at CYP2C19, the “role towards CYP2C19 (substrate / inhibitor / inducer)” value is given as “inhibitor”. The “role towards CYP2C9 (substrate / inhibitor / inducer)” value on CYP2C9 was “inhibitor”. The “role towards CYP2D6 (substrate / inhibitor / inducer)” value at CYP2D6 is recorded as “inhibitor”.
In the case of `O=C1C[C@@H](c2ccc(O)cc2)Oc2cc(O)cc(O)c21` [Naringenin, naringenin], the “role towards CYP11B1 (substrate / inhibitor / inducer)” value at CYP11B1 was “Inhibitor”. Moreover, the “role towards CYP3A4 (substrate / inhibitor / inducer)” value at CYP3A4 is listed as “inhibitor”.
Turning to `CC(=O)O[C@H]1C(=O)[C@@]2(C)[C@H]([C@H](OC(=O)c3ccccc3)[C@]3(O)C[C@H](OC(=O)[C@H](O)[C@@H](NC(=O)c4ccccc4)c4ccccc4)C(C)=C1C3(C)C)[C@]1(OC(C)=O)CO[C@@H]1C[C@@H]2O` [Paclitaxel, paclitaxel], the “role towards CYP3A4 (substrate / inhibitor / inducer)” value at CYP3A4 is reported as “Substrate; also recorded: inhibitor”.
`CO[C@H]1/C=C/O[C@@]2(C)Oc3c(C)c(O)c4c(O)c(c(/C=N/N5CCN(C)CC5)c(O)c4c3C2=O)NC(=O)/C(C)=C\C=C\[C@H](C)[C@H](O)[C@@H](C)[C@@H](O)[C@@H](C)[C@H](OC(C)=O)[C@@H]1C` [Rifampin, rifampin]: at CYP2B6, the “role towards CYP2B6 (substrate / inhibitor / inducer)” value was “inducer”. Also, the “role towards CYP2C18 (substrate / inhibitor / inducer)” value at CYP2C18 is reported as “inducer”.
Turning to `CC1=C(/C=C/C(C)=C/C=C/C(C)=C/CO)C(C)(C)CCC1` [Vitamin A retinol, retinol], the “role towards CYP2C8 (substrate / inhibitor / inducer)” value at CYP2C8 is given as “Inhibitor; also recorded: Substrate”. The “role towards CYP2B6 (substrate / inhibitor / inducer)” value on CYP2B6 is reported as “Inhibitor”. The “role towards CYP2D6 (substrate / inhibitor / inducer)” value on CYP2D6 is on record as “Substrate”. In addition, the “role towards CYP1A1 (substrate / inhibitor / inducer)” value on CYP1A1 is given as “Inhibitor”.
Regarding `CC(=O)CC(c1ccccc1)c1c(O)c2ccccc2oc1=O` (stereo not drawn) [Warfarin, warfarin], at CYP2C8, the “role towards CYP2C8 (substrate / inhibitor / inducer)” value is reported as “Substrate”. Besides, on CYP1A2, the “role towards CYP1A2 (substrate / inhibitor / inducer)” value is “Substrate”. For the same molecule, at CYP3A4, the “role towards CYP3A4 (substrate / inhibitor / inducer)” value is given as “Substrate”. The “role towards CYP2C18 (substrate / inhibitor / inducer)” value on CYP2C18 is listed as “Substrate”. On CYP1A1, the “role towards CYP1A1 (substrate / inhibitor / inducer)” value was “Substrate”.
